By melting point is commonly meant the temperature, or range, at which the solid turns liquid. For orientation: IC50 means the concentration that gives 50% inhibition.

One series addresses VEGFR-3 (Homo sapiens (Human), UniProt P35916). As to the kind of experiment: Measurement of the tyrosine kinase activity of VEGFR-3 by ELISA. The class given is biochemical. The note with it: VEGFR-3-TK, poly Glu-Tyr substrate, 30 μM ATP. A general note: In an ELISA, binding on a coated surface is turned into a signal by an enzyme label.

VEGFR-3, sequence (P35916 845-1173): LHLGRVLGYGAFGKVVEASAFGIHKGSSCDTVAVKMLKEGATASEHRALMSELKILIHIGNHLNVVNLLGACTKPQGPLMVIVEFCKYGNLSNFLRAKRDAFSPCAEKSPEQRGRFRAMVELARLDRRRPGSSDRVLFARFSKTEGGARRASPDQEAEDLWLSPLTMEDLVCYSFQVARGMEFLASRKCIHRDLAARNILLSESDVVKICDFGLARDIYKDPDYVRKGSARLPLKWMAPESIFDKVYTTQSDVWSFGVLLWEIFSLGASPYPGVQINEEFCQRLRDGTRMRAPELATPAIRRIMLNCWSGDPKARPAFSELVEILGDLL
Method for VEGFR-3: Measurement of the Tyrosine Kinase Activity of VEGFR-3 by ELISA
The enzymatic activity of VEGFR-3 is evaluated on an ELISA assay by measuring the intensity of phosphorylation of the substrate poly Glu-Tyr. […] The plate is then covered with an adhesive film and incubated overnight at 37° C. The following day, the wells are emptied by turning the plate over, washed by adding 300 μl of buffer solution (PBS+0.05% Tween 20) and dried by further incubation of the plate for 2 h at 37° C. A 90 μl reaction mixture is deposited onto each well. […] The plates are then incubated with gentle agitation at ambient temperature for 30 min. After 3 rinses with the buffer solution (300 μl/well per wash), 100 μl of anti-phosphotyrosine-HRP antibody ( 1/30 000) are added to each well and the plates are again incubated for 30 min at ambient temperature with gentle agitation. […] The total activity is evaluated by the difference in optical density obtained on samples incubated in the presence (stimulated) and in the absence (non-stimulated) of VEGFR-3.

The compound `CNC(=O)c1c(N)n(C2CCCC2)c2nc(C#CC(C)(O)CO)ccc2c1=O` (racemic) [Compound 53, (±)-2-Amino-1-cyclopentyl-7-(3,4-dihydroxy-3-methylbut-1-yn-1-yl)-N-methyl-4-oxo-1,4-dihydro-1,8-naphthyridine-3-carboxamide] registered a melting point of 210.5 °C.

At VEGFR-3, `CCn1c(N)c(C(=O)NC)c(=O)c2ccc(C#CC(C)(O)COC)nc21` (single isomer, unassigned; (-)) [Compound 72, (−)-2-amino-1-ethyl-7-(3-hydroxy-4-methoxy-3-methylbut-1-yn-1-yl)-N-methyl-4-oxo-1,4-dihydro-1,8-naphthyridine-3-carboxamide] gave an IC50 of 23 nM. That is a double-digit nanomolar value.

With `CCn1c(N)c(C(=O)NC)c(=O)c2ccc(C#CC3(O)CCOC3)nc21` (racemic) [Compound 7, (±)-2-Amino-1-ethyl-7-[(3-hydroxytetrahydrofuran-3-yl)ethynyl]-N-methyl-4-oxo-1,4-dihydro-1,8-naphthyridine-3-carboxamide], the melting point was determined as 253 °C.

`CCn1c(N)c(C(=O)NC)c(=O)c2ccc(C#CC(O)C3CCCC3)nc21` (racemic) [Compound 10, (±)-2-Amino-7-(3-cyclopentyl-3-hydroxyprop-1-yn-1-yl)-1-ethyl-N-methyl-4-oxo-1,4-dihydro-1,8-naphthyridine-3-carboxamide] yielded a melting point of 253 °C.

Compound `CCn1c(N)c(C(=O)NC)c(=O)c2ccc(C#CC(C)(O)c3cnccn3)nc21` (racemic) [Compound 48, (±)-2-Amino-1-ethyl-7-(3-hydroxy-3-pyrazin-2-ylbut-1-yn-1-yl)-N-methyl-4-oxo-1,4-dihydro-1,8-naphthyridine-3-carboxamide] displayed a melting point of 271 °C.

Take `CCn1c(N)c(C(=O)NC)c(=O)c2ccc(C#CC(O)(COC)C3CC3)nc21` (racemic) [Compound 50, (±)-2-Amino-7-(3-cyclopropyl-3-hydroxy-4-methoxybut-1-yn-1-yl)-1-ethyl-N-methyl-4-oxo-1,4-dihydro-1,8-naphthyridine-3-carboxamide]: the melting point is 208 °C.

In turn, `CNC(=O)c1c(N)n(Cc2ccccn2)c2nc(C#CC(C)(O)COC)ccc2c1=O` (racemic) came in with a melting point of 169 °C.

Source of the values: US8470847B2, “Derivatives of 7-alkynyl-1,8-naphthyridones, preparation method thereof and use of same in therapeutics” (Sanofi, priority 2007, dated 2013).
